{"source": "PubChem BioAssay AID463206", "about": "(Broad Institute, 2010)", "note": "Active and inactive are the calls of the source.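 Rule for the calls: active = caspase luminescence falls with dose and the half-maximal concentration AC50 from the fitted curve is at or below a set limit; inconclusive = flat fit at 30 to 70% signal loss, or invalid fit; inactive = AC50 above the limit, or signal rises instead.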"}
{"tested_on": "INS-1E cytokine-induced caspase-3/7, Caspase-Glo luminescence, 48 h", "test": "inhibitors of cytokine-induced caspase-3/7 activity, dose response, orthogonal assay for beta-cell apoptosis protection project, INS-1E rat cells, luminescence (AID 463206)"}
{"smiles": "Nc1ccc(Nc2ccccc2)cc1", "AC50": "17.7 µM"}
{"smiles": "COCCCNC(=O)Cn1nnc(-c2ccc(NC(=O)c3cccnc3)cc2)n1", "AC50": "> 26 µM (inactive)"}
{"smiles": "COc1cccc(-c2nc(-c3ccc(NC(=O)c4cccnc4)cc3)no2)c1", "AC50": "> 26 µM (inactive)"}
{"smiles": "N#CC(C#N)=NNc1ccc(-n2ccc(C(F)(F)F)n2)cc1", "AC50": "> 26 µM (inactive)"}
{"smiles": "Cc1sc2ncnc(NCc3cccs3)c2c1C", "AC50": "> 26 µM (inactive)"}
{"smiles": "COc1ccc(C2C(C#N)=C(N)Oc3c2ccc2cccnc32)cc1OC", "note": "(stereo unspecified)", "AC50": "> 12 µM (inactive)"}
{"smiles": "CCCOc1cc(NCc2ccccc2)c2ncn(C(C)C)c2c1", "AC50": "> 26 µM (inactive)"}
{"smiles": "CC(C)c1cccc(C(C)C)c1OC(=O)[C@H]1OC(C(C)(C)C)=C[C@@H]1c1ccccc1", "AC50": "> 26 µM (inactive)"}
{"smiles": "O=C(CSc1nnc(Cn2nnc3ccccc32)o1)N(Cc1ccc(F)cc1)c1ccccc1", "AC50": "> 26 µM (inactive)"}
{"smiles": "c1ccc(CNc2nc(-c3ccccn3)nc3ccccc23)cc1", "AC50": "> 26 µM (inactive)"}
{"smiles": "Cc1cccc(N=Nc2ccc(O)c3ncccc23)c1", "AC50": "> 26 µM (inactive)"}
{"smiles": "O=[N+]([O-])c1ccc(O)c(/C=N/Nc2nc3ccccc3[nH]2)c1", "AC50": "> 26 µM (inactive)"}
{"smiles": "N/C(=N\\OC(=O)c1ccc(Cl)cc1Cl)c1ccccn1", "AC50": "> 26 µM (inactive)"}
{"smiles": "Cc1nc(C(F)(F)F)c(C(=O)N/N=C(\\N)c2ccccn2)s1", "AC50": "> 26 µM (inactive)"}
{"smiles": "O=[N+]([O-])c1cccnc1N/N=C/c1ccccc1O", "AC50": "> 26 µM (inactive)"}
{"smiles": "C=CCN(CC=C)Cc1c[nH]c2ccccc12", "AC50": "26.3 µM"}
{"smiles": "COC(=O)C1=C(C)N(Cc2ccccc2)C(=NCc2cccc(C(F)(F)F)c2)N[C@H]1c1cccc(C(F)(F)F)c1", "AC50": "> 26 µM (inactive)"}
{"smiles": "O=C(C#Cc1ccccc1)c1ccco1", "AC50": "> 26 µM (inactive)"}
{"smiles": "O=[N+]([O-])/C=C/c1cn(Cc2ccc(F)cc2)c2ccccc12", "AC50": "> 26 µM (inactive)"}
{"smiles": "Cc1cc(N2CCN(S(=O)(=O)c3ccc(Cl)cc3)CC2)c2ccccc2n1", "AC50": "> 12 µM (inactive)"}
{"smiles": "CCOC(=O)c1ccc(NC(=O)NCc2cccnc2)cc1", "AC50": "> 26 µM (inactive)"}
{"smiles": "Cc1cc(Cl)c(S(=O)(=O)N2CCN(c3ccc(F)cc3)CC2)cc1OCC(=O)NC1CCCCC1", "AC50": "> 26 µM (inactive)"}
{"smiles": "COc1ccc(Cn2c(SCc3cc(C)ccc3C)nc3cc(OC)c(OC)cc3c2=N)cc1", "AC50": "> 26 µM (inactive)"}
{"smiles": "CCCC(=O)NC(c1ccc(OC)cc1)c1ccc2cccnc2c1O", "note": "(stereo unspecified)", "AC50": "> 26 µM (inactive)"}
{"smiles": "COc1ccc(-c2csc(NC(=O)C3CCN(c4ncnc5sc(C)c(C)c45)CC3)n2)cc1OC", "AC50": "> 26 µM (inactive)"}
{"smiles": "Cc1ccc(Nc2c(-c3ccccn3)nc3ccc(C)cn23)cc1", "AC50": "> 26 µM (inactive)"}
{"smiles": "CCCN(CCC)c1nc(-c2ccccn2)nc2ccccc12", "AC50": "> 26 µM (inactive)"}
{"smiles": "O=C1C=C(c2ccc(F)cc2OCc2ccccc2)C[C@@H](c2ccc(Cl)cc2)C1", "AC50": "> 26 µM (inactive)"}
{"smiles": "C=CC[C@@H](CC(=O)N(CCO)Cc1ccccc1)C(=O)N[C@H](COC(=O)[C@@H](CC=C)CC(=O)OC(C)(C)C)c1ccccc1", "AC50": "> 26 µM (inactive)"}
{"smiles": "Cc1onc(-c2c(Cl)cccc2Cl)c1C(=O)N/N=C(\\N)COc1ccc(Cl)cc1", "AC50": "> 26 µM (inactive)"}
{"smiles": "O=C(Nc1nc(-c2ccccn2)cs1)c1ccc(Cl)s1", "AC50": "> 26 µM (inactive)"}
{"smiles": "Cc1ccccc1CS(=O)(=O)c1nnc([C@H](Cc2ccccc2)NC(=O)OC(C)(C)C)o1", "AC50": "> 26 µM (inactive)"}
{"smiles": "Cc1nc(Nc2cnc(/C=C/c3cc(C(=O)Nc4cccc(C(F)(F)F)c4)ccc3C)cn2)cc(N2CCNCC2)n1", "AC50": "> 26 µM (inactive)"}
{"smiles": "C=CCNC(=S)N/N=C(\\C)c1ccccn1", "AC50": "> 26 µM (inactive)"}
{"smiles": "Oc1ccc(CNc2ccccc2)c2cccnc12", "AC50": "> 26 µM (inactive)"}
{"smiles": "O=S1(=O)C=C(Sc2nc3ccccc3s2)c2ccccc21", "AC50": "> 26 µM (inactive)"}
{"smiles": "O=C(/C=C/c1ccccc1)NC(=S)NNC(=O)c1cnccn1", "AC50": "> 26 µM (inactive)"}
{"smiles": "COc1ccc(/C(C)=N/Nc2nc(C)cc(-c3ccccc3)n2)cc1", "AC50": "> 26 µM (inactive)"}
{"smiles": "O=C(Nc1ccc(C(=O)Nc2ccccc2Cl)cc1)c1cccnc1", "AC50": "> 26 µM (inactive)"}
{"smiles": "Cc1ccc(Cn2c(=N)n(CC(=O)c3ccccc3)c3ccccc32)cc1", "AC50": "> 26 µM (inactive)"}
{"smiles": "CCOC(=O)c1[nH]cnc1N=Nc1c(O)ccc2ccccc12", "AC50": "> 26 µM (inactive)"}
{"smiles": "Cc1csc2c(N3CCN(C(=O)c4ccc(C(C)(C)C)cc4)CC3)ncnc12", "AC50": "> 26 µM (inactive)"}
{"smiles": "Cc1cccc(NC(=O)Cn2c(/C=C/c3ccccc3)nc3ccccc32)c1", "AC50": "> 26 µM (inactive)"}
{"smiles": "COC(=O)c1cc(=O)n(CCc2ccccc2F)c(=Nc2ccc(F)c(Cl)c2)s1", "AC50": "> 26 µM (inactive)"}
{"smiles": "O=C(N/N=C/c1c(O)ccc2ccccc12)c1[nH]ncc1Br", "AC50": "> 26 µM (inactive)"}
{"smiles": "Cc1ccc(NC2=C/C(=N\\S(=O)(=O)c3cccs3)c3ccccc3C2=O)c(C)c1", "AC50": "> 26 µM (inactive)"}
{"smiles": "CCCCCCCCn1ccc(=N)cc1", "AC50": "> 26 µM (inactive)"}
{"smiles": "CCN(CC)c1ccc(CNc2nc3ccccc3n2CCN2CCCCC2)cc1", "AC50": "> 26 µM (inactive)"}
{"smiles": "CCN(CC)C(=O)c1cc([N+](=O)[O-])cc2c1-c1ccc([N+](=O)[O-])cc1C2=C(C#N)C#N", "AC50": "> 26 µM (inactive)"}
{"smiles": "CCOC(=O)c1c(C)[nH]c(C)c1C(=O)CSc1nc2ccccc2c(=O)n1-c1ccc(CC)cc1", "AC50": "> 26 µM (inactive)"}
{"smiles": "CN1/C(=C\\C(=O)C[n+]2ccc(C(=O)c3ccccc3)cc2)C(C)(C)c2ccccc21", "AC50": "> 26 µM (inactive)"}
{"smiles": "C=C(C)C(=O)OCC(O)COc1ccc(C(C)(C)c2ccc(OCC(O)COC(=O)C(=C)C)cc2)cc1", "note": "(stereo unspecified)", "AC50": "> 26 µM (inactive)"}
{"smiles": "NC(=S)N/N=C/c1ccccc1O", "AC50": "> 26 µM (inactive)"}
{"smiles": "COc1cc(OC)c(NC2=CC(=O)C(=O)c3ccccc32)cc1Cl", "AC50": "> 26 µM (inactive)"}
{"smiles": "COc1ccc(C(C)NCCC(c2ccc(OC(C)C)cc2)c2ccccc2OC)cc1", "note": "(stereo unspecified)", "AC50": "> 26 µM (inactive)"}
{"smiles": "O=S(=O)([N-]c1nc2ccccc2nc1-[n+]1ccc(Cc2ccccc2)cc1)c1ccc(Br)s1", "AC50": "> 26 µM (inactive)"}
{"smiles": "CC(C)OCCCNC(=S)N1CCC(C(=O)c2ccc(Cl)cc2)CC1", "AC50": "> 26 µM (inactive)"}
{"smiles": "CCC(O)C1CCN(C(=O)c2cc(COc3ccc4ncccc4c3)on2)CC1", "note": "(stereo unspecified)", "AC50": "> 26 µM (inactive)"}
{"smiles": "O=C(N/N=C/c1ccccc1O)/C(=C/c1ccccc1)CCO", "AC50": "> 26 µM (inactive)"}
{"smiles": "Brc1ccc(N/N=C(/N=Nc2nn[nH]n2)c2ccccc2)cc1", "AC50": "> 26 µM (inactive)"}
{"smiles": "O=[N+]([O-])c1cccc(-c2cn3nc(-c4ccccc4)c(-c4ccccc4)nc3n2)c1", "AC50": "> 26 µM (inactive)"}
{"smiles": "Cc1cccc(CNc2ccc(S(=O)(=O)N3CCCCC3)cc2)c1", "AC50": "> 26 µM (inactive)"}
{"smiles": "O=C(Nc1cccc(Cl)c1)Nc1nnc(-c2ccncc2)s1", "AC50": "> 26 µM (inactive)"}
{"smiles": "COc1ccc(N2CC(C(=O)N3CCN(c4ccccc4F)CC3)CC2=O)cc1", "note": "(stereo unspecified)", "AC50": "> 26 µM (inactive)"}
{"smiles": "CCN1CCN(Cc2ccc(NC(=O)c3ccc(C)c(NC(=O)c4c[nH]c5cc(C(F)(F)F)ccc5c4=O)c3)cc2C(F)(F)F)CC1", "AC50": "> 26 µM (inactive)"}
{"smiles": "O=C(Nc1cccc(S(=O)(=O)Nc2ccc(Cl)cc2)c1)c1ccc(Cl)nc1", "AC50": "> 26 µM (inactive)"}
{"smiles": "CCOC(=O)C(NCCc1ccc(F)cc1)(NC(=O)CC)C(F)(F)F", "note": "(stereo unspecified)", "AC50": "> 26 µM (inactive)"}
{"smiles": "Brc1ccc(-[n+]2c(-c3ccccc3)cc(-c3ccccc3)cc2-c2ccccc2)cc1", "AC50": "> 26 µM (inactive)"}
{"smiles": "COc1cccc(/C=N/NC(=O)c2[nH]nc3c2CCc2ccccc2-3)c1O", "AC50": "> 26 µM (inactive)"}
{"smiles": "CCn1c(SCC(=O)Nc2cc(C)on2)nc2sc3c(c2c1=O)CCCC3", "AC50": "> 12 µM (inactive)"}
{"smiles": "Cc1nn(-c2ccccc2)c(C)c1NC(=O)COc1ccc(Br)cc1Cl", "AC50": "> 26 µM (inactive)"}
{"smiles": "Nc1nc2ccccc2n1/N=C/c1ccc([N+](=O)[O-])s1", "AC50": "> 26 µM (inactive)"}
{"smiles": "O=C(Nc1ccc(Cl)cc1)Nc1csc([N+](=O)[O-])c1", "AC50": "> 26 µM (inactive)"}
{"smiles": "O=C(NCc1ccccc1)C1=C[C@@H](c2csc3ccccc23)C[C@@H](OCCCCO)O1", "AC50": "> 26 µM (inactive)"}
{"smiles": "COc1ccc(O)c(/C=N/Nc2nc(Nc3ccccc3)nc(-n3nc(C)cc3C)n2)c1", "AC50": "> 26 µM (inactive)"}
{"smiles": "Cc1nc(N2CCN(C(=O)c3ccco3)CC2)c2c3c(sc2n1)CC(C)CC3", "note": "(stereo unspecified)", "AC50": "> 26 µM (inactive)"}
{"smiles": "c1ccc2c(c1)ncn2CCCCOc1ccc2c(c1)CCC2", "AC50": "> 26 µM (inactive)"}
{"smiles": "CN1/C(=C\\C(=S)NC(=O)c2cccc(Br)c2)C(C)(C)c2ccccc21", "AC50": "> 26 µM (inactive)"}
{"smiles": "CC(C)(C)c1nnc(N/N=C/c2cc(Br)ccc2O)n(N)c1=O", "AC50": "> 26 µM (inactive)"}
{"smiles": "O=S(=O)(C/C(=C/CO)S(=O)(=O)c1ccccc1)c1ccccc1", "AC50": "4.21 µM"}
{"smiles": "CN1/C(=C\\P(=O)(N(C)C)N(C)C)C(C)(C)c2ccccc21", "AC50": "> 26 µM (inactive)"}
{"smiles": "COc1cccc(CNCCc2c[nH]c3ccccc23)c1OCc1ccccc1F", "AC50": "> 26 µM (inactive)"}
{"smiles": "O=C(/C(=C/c1ccc(Cl)cc1)c1nc2ccccc2[nH]1)c1cccs1", "AC50": "> 26 µM (inactive)"}
{"smiles": "C/C(=N\\NC(=O)Cc1ccc(Cl)cc1)c1ccccn1", "AC50": "> 26 µM (inactive)"}
{"smiles": "Cc1cc(C)n(-c2nc(NCCN(C)C)c3c4c(sc3n2)CCCC4)n1", "AC50": "13.1 µM"}
{"smiles": "NC(N)=N/N=C/c1ccc(N(c2ccccc2)c2ccccc2)cc1", "AC50": "> 26 µM (inactive)"}
{"smiles": "CCn1c(/C=C/c2ccc([N+](=O)[O-])o2)nc2ccccc2c1=O", "AC50": "> 26 µM (inactive)"}
{"smiles": "CCN(CC)CCOC(=O)c1ccc(N/C=C(/C#N)c2nc(-c3ccc4c(c3)OCO4)cs2)cc1", "AC50": "> 26 µM (inactive)"}
{"smiles": "Cc1cc(C)nc(N/N=C/c2cc(Br)ccc2O)n1", "AC50": "> 26 µM (inactive)"}
{"smiles": "COc1cccc(/C=N/Nc2ncnc3scc(-c4ccccc4)c23)c1O", "AC50": "> 26 µM (inactive)"}
{"smiles": "COc1ccc(-[n+]2c(-c3ccccc3)cc(-c3ccccc3)cc2-c2ccccc2)cc1", "AC50": "> 26 µM (inactive)"}
{"smiles": "CC(=O)C1=C(c2ccc(Br)cc2)C(=O)c2ccccc2C1=O", "AC50": "> 26 µM (inactive)"}
{"smiles": "Cc1c(C(C)C)c(=O)n(-c2ccc(S(=O)(=O)NCc3ccccc3)cc2)n1C", "AC50": "> 26 µM (inactive)"}
{"smiles": "COc1cc(OC)c2cc(C(=O)N/N=C/c3ccccc3O)[nH]c2c1", "AC50": "> 26 µM (inactive)"}
{"smiles": "Oc1c(Cl)cc(Cl)cc1/C=N/Nc1ncc(Br)cn1", "AC50": "> 26 µM (inactive)"}
{"smiles": "CCOc1ccc(S(=O)(=O)NCc2ccncc2)cc1", "AC50": "> 26 µM (inactive)"}
